Data on 33 molecules can be found in patent US9335325B2, “Immunodominant Mycobacterium tuberculosis peptides from cell wall proteins for early diagnosis and immunization” (priority 2008, dated 2016).

Common to all, as to type: binding
In test [1] the test system is antibodies in sera from TB patients and PPD+/PPD- healthy subjects. Kind of test: ELISA of PE-PGRS51 overlapping peptides with human sera. Particulars: for non-specific reactivity with sera from HIV+TB- subjects: 20 HIV+TB- subjects, positive/tested; for final sensitivity: percent of patients whose sera recognize the peptide: 90 sputum smear positive TB patients, positive 2/3 or 3/3 times, cut-off mean plus 4 SD; for Immunoreactive: PE-PGRS51 peptides, biotinylated, streptavidin plates, TB patient sera. On the technique in general: In an ELISA, binding on a coated surface is turned into a signal by an enzyme label.

Test [2] concerns antibodies in sera from HIV-TB+ patients and PPD+/PPD- healthy controls. As to the kind of experiment: ELISA of LipC overlapping peptides with human sera. Particulars: biotinylated, streptavidin plates, patient sera.
For test [3] the test system is unchanged. As to the kind of experiment: ELISA of PTRP overlapping peptides with human sera. Particulars: for Immunoreactive: PTRP peptides, biotinylated, streptavidin plates, TB patient sera; for percent of HIV-TB+ patient sera positive with the peptide in 2/3 or 3/3 tests: 60 HIV-TB+ patients, cut-off mean OD of PPD+/PPD- plus 3 SD, retested twice.
Test [4] has as its system anti-LipC antibodies in sera from TB patients. As to the kind of experiment: Western blot of His-tagged LipC probed with human sera. The note with it: for sera showing anti-LipC antibodies: positive/tested. In general terms: A western blot detects proteins with antibodies after separation by electrophoresis.

For AGAGGNGAAGGDGGANGGAG [PG-31], in test [1], the “non-specific reactivity with sera from HIV+TB- subjects” value (from here on “non-specific reactivity with sera”) was “no cross-reactivity”, the “final sensitivity: percent of patients whose sera recognize the peptide” value (from here on “final sensitivity: percent”) was found to be 52% and the Immunoreactive entry was “++ (++ indicates that the peptides were recognized by 40% or more TB patient sera)”. For the same molecule, the “percent of HIV+TB+ patient sera recognizing the peptide (sensitivity)” value in test [1] (30 smear positive HIV+TB+ patients) is 57%.
In the case of AHAIALFLNQVHRSRAQFAK [Lp-39], the Immunoreactive entry in test [2] is listed as “++ (++ immunodominant based on being recognized by 45% or more patient sera)”.
With ARPADYMLALSVAGGSLPVV [Lp-3], in test [2], the Immunoreactive entry is reported as “++ (++ immunodominant based on being recognized by 45% or more patient sera)”.
DATTSLPRAEAGQSGSEGEQ [PT-23]: the Immunoreactive entry in test [3] is given as “++ (++ indicates that the peptides were recognized by 40% or more TB patient sera)”.
In the case of DGGLLFGNGGAGYNSAATPG [PG-14], in test [1], the Immunoreactive entry was “++ (++ indicates that the peptides were recognized by 40% or more TB patient sera)”.
DRSLAGENHRLVATRLCWPD [PT-6]: the Immunoreactive entry in test [3] is on record as “++ (++ indicates that the peptides were recognized by 40% or more TB patient sera)”.
For FPGWQPGMPTIPTAPPTTPV [PT-41], in test [3], the “percent of HIV-TB+ patient sera positive with the peptide in 2/3 or 3/3 tests” value (shortened to “percent of HIV-TB+ patient sera positive”) was 55% and the Immunoreactive entry is on record as “++ (++ indicates that the peptides were recognized by 40% or more TB patient sera)”.
In the case of GGTGGDGGDGGHAGTGGRGG [PG-51], the Immunoreactive result in test [1] is listed as “++ (++ indicates that the peptides were recognized by 40% or more TB patient sera)”.
Regarding GGTHGTPGSGNAGGTGTGNA [PG-55], in test [1], the “final sensitivity: percent” value is listed as 49% and the Immunoreactive entry was “++ (++ indicates that the peptides were recognized by 40% or more TB patient sera)”.
Turning to GHAGTGGRGGLLAGQHANSG [PG-52], the Immunoreactive result in test [1] is on record as “++ (++ indicates that the peptides were recognized by 40% or more TB patient sera)”.
With GNGGAGGDANGNPANTSIAN [PG-29], in test [1], the Immunoreactive result was “++ (++ indicates that the peptides were recognized by 40% or more TB patient sera)”.
In the case of GSRDCVIPVEQARSFVERLR [Lp-34], in test [2], the Immunoreactive entry is recorded as “++ (++ immunodominant based on being recognized by 45% or more patient sera)”.
Take GTPGGAGVNGGNGGAGGDAN [PG-28]: the Immunoreactive entry in test [1] is listed as “++ (++ indicates that the peptides were recognized by 40% or more TB patient sera)”.
For IAVAGCSAGGHLSALAGLTA [Lp-24], in test [2], the Immunoreactive entry is on record as “++ (++ immunodominant based on being recognized by 45% or more patient sera)”.
LAAAASDVANIGSALSAANA [PG-2]: in test [1], the “non-specific reactivity with sera” value is 2/20, the “final sensitivity: percent” value came to 48% and the Immunoreactive entry is given as “++ (++ indicates that the peptides were recognized by 40% or more TB patient sera)”.
Consider LLAGQHANSGNGGGGGTGGA [PG-53], for which the Immunoreactive result in test [1] was “++ (++ indicates that the peptides were recognized by 40% or more TB patient sera)”.
In the case of LQDSGVHDVAVISEAQAATA [PT-9], in test [3], the “percent of HIV-TB+ patient sera positive” value turned out to be 58% and the Immunoreactive entry is recorded as “++ (++ indicates that the peptides were recognized by 40% or more TB patient sera)”.
Consider LSVVGDPDAPPTMVAVAPVA [PT-13], for which, in test [3], the “percent of HIV-TB+ patient sera positive” value was found to be 53% and the Immunoreactive result is “++ (++ indicates that the peptides were recognized by 40% or more TB patient sera)”.
On to LTGNDGVNPAPVTNPALNGA [PG-24], for which the Immunoreactive result in test [1] is “++ (++ indicates that the peptides were recognized by 40% or more TB patient sera)”.
On the same count and under the same terms, for MAGGNGGNAGLIGNGGTGGS [PG-16] the value was “++ (++ indicates that the peptides were recognized by 40% or more TB patient sera)”.
For MDVALGVAVTDRVARLALVD [PT-1], in test [3], the Immunoreactive result was “++ (++ indicates that the peptides were recognized by 40% or more TB patient sera)”.
Turning to NDPQYQAELPEGSDTSVDAV [Lp-26], the Immunoreactive result in test [2] is on record as “++ (++ immunodominant based on being recognized by 45% or more patient sera)”.
Turning to NGGAGGDAGHGGTGGDGGDG [PG-50], in test [1], the “non-specific reactivity with sera” value is listed as 1/20, the “final sensitivity: percent” value amounted to 50% and the Immunoreactive result is listed as “++ (++ indicates that the peptides were recognized by 40% or more TB patient sera)”.
For the molecule PIPVPIIIPPFPGWQPGMPT [PT-40], in test [3], the “percent of HIV-TB+ patient sera positive” value is on record as 52% and the Immunoreactive result is given as “++ (++ indicates that the peptides were recognized by 40% or more TB patient sera)”.
As to PTMVAVAPVAGADATSTVDT [PT-14], in test [3], the Immunoreactive entry was “++ (++ indicates that the peptides were recognized by 40% or more TB patient sera)”.
On the same count and under the same terms, for QQAPVPPPPPDDPTAGFQGG [PT-34] the value was “++ (++ indicates that the peptides were recognized by 40% or more TB patient sera)”; for QTPDDPTFALARGAAMAAGA [PT-20], “++ (++ indicates that the peptides were recognized by 40% or more TB patient sera)”; for SAAPGTVIDQFVLDVAEHPV [PT-3], “++ (++ indicates that the peptides were recognized by 40% or more TB patient sera)”.
As for SVAGGSLPVVGKHLKPLGGV [Lp-4], the Immunoreactive entry in test [2] is given as “++ (++ immunodominant based on being recognized by 45% or more patient sera)”.
Same read-out and setting: for TAIGVWGARHASDFLSATAK [Lp-6] the value was “++ (++ immunodominant based on being recognized by 45% or more patient sera)”.
TGAGGSYALTEAANVQQNLL [PG-9]: in test [1], the Immunoreactive entry is on record as “++ (++ indicates that the peptides were recognized by 40% or more TB patient sera)”.
Turning to TTPPTTPVTTPPTTPPTTPV [PT-45], the Immunoreactive result in test [3] is on record as “++ (++ indicates that the peptides were recognized by 40% or more TB patient sera)”.

B1: LipC: purified His-tagged recombinant Mtb LipC protein (SEQ ID NO:6), probable esterase (protein)
chain: MNQRRAAGSTGVAYIRWLLRARPADYMLALSVAGGSLPVVGKHLKPLGGVTAIGVWGARHASDFLSATAKDLLTPGINEVRRRDRASTQEVSVAALRGIVSPDDLAVEWPAPERTPPVCGALRHRRYVHRRRVLYGDDPAQLLDVWRRKDMPTKPAPVLIFVPGGAWVHGSRAIQGYAVLSRLAAQGWVCLSIDYRVAPHHRWPRHILDVKTAIAWARANVDKFGGDRNFIAVAGCSAGGHLSALAGLTANDPQYQAELPEGSDTSVDAVVGIYGRYDWEDRSTPERARFVDFLERVVVQRTIDRHPEVFRDASPIQRVTRNAPPFLVIHGSRDCVIPVEQARSFVERLRAVSRSQVGYLELPGAGHGFDLLDGARTGPTAHAIALFLNQVHRSRAQFAKEVI
modifications: His tag; Mycbacterium tuberculosis Strain H37Rv
Turning to B1, the “sera showing anti-LipC antibodies” value in test [4] (HIV+TB+ patients) is 6/6; in test [4] (HIV-TB+ patients), 5/6; in test [4] (TB patients (HIV-TB+ and HIV+TB+)) it was 11/12. Besides, the “reactivity of control sera” value in test [4] (HIV+TB-, HIV-PPD+, HIV-PPD- control sera) is “background cross-reactivity”.
